Source: patent publication US20250090545A1, “METHODS AND COMPOSITIONS FOR TREATMENT OF PERIPHERAL NEUROPATHIES” (UNIVERSITY OF MANITOBA, priority 2013, published 2025)

Tests used:
[1] = system: adult sensory neuron cultures from STZ-induced diabetic rats; assay: Mitochondrial respiration (OCR) in adult sensory neuron cultures; assay type: cell-based, rat; conditions: 1 μM for 3 h
Experimental: Mitochondrial respiration in adult mouse sensory neuron cultures from wild type control mice, M1 receptor knockout mice (M1R KO), and from diabetic mice that received dosing with 1 μM of VU0255035 for 3 h, were assessed following the methods taught by Roy Chowdhury et al. (2012). The M1R knockout mice were a gift from Dr. Jurgen Wess (Molecular Signaling Section, Laboratory of Bioorganic Chemistry, National Institute of Diabetes and Digestive and Kidney Diseases, National Institutes of Health).
This bioenergetics parameter, which is depressed in diabetes, is related to the capacity of cells to conduct respiration under conditions of stress or high ATP demand. In this regard we propose the stress is the presence of high intracellular glucose concentrations.

[2] = target: T1, type 1 muscarinic receptor (M1R) (Homo sapiens, UniProt P11229); conditions: cited from earlier work
T1 sequence (P11229 1-460): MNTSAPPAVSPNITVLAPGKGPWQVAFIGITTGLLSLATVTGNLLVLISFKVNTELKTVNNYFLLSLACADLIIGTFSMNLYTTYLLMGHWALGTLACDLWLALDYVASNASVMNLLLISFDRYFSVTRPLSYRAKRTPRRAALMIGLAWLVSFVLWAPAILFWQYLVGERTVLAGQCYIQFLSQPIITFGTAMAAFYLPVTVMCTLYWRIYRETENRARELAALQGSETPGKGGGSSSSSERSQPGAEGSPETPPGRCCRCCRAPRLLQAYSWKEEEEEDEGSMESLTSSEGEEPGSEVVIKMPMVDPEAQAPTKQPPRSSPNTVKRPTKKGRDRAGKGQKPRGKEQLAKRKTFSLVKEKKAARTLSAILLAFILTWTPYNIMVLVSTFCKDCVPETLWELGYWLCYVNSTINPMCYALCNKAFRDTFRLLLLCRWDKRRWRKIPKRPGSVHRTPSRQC

[3] = system: adult sensory neuron cultures derived from STZ-induced diabetic rats; assay: Neurite outgrowth in sensory neuron cultures transduced with dominant negative AMPK mutants; assay type: cell-based, rat; conditions: 1.0 μM pirenzepine; adenovirus dominant negative AMPK mutants AdDN1/AdDN2
Experimental: Adult sensory neuron cultures derived from STZ-induced diabetic rats were transduced for two days after treatment with 1.0 μM pirenzepine, with two adenovirus over-expressing dominant negative mutants of AMPK, i.e., AMPK subunit α1 and α2 mutants named “AdDN1” and “AdDN2” (the adenovirus over-expressing dominant negative mutants were gifts from Dr. Jason Dyck, University of Alberta) following the procedure taught by Roy Chowdhury et al., (2012).

[4] = system: paclitaxel-treated Swiss Webster mice; assay type: in vivo, mouse; conditions: pirenzepine daily s.c. for 4 weeks (10 mg/kg/day, also printed 1 mg/kg/day)
Experimental: Swiss Webster mice were treated with paclitaxel (taxol; 5 mg/kg on days 1,3,5 and 7) to induce peripheral neuropathy. […] Data points are group mean of n=9-12/group±SEM. Significant differences were determined with a oneway ANOVA followed by Dunnett's post-hoc test.

PGC-1α = PGC-1α transcriptional activity, luciferase reporter in adult sensory neurons; assay type: cell-based, rat; conditions: 1 μM; neurons from STZ-induced diabetic rats
Experimental: PGC-1α transcriptional activity was determined in dissociated adult sensory neurons derived from STZ-induced diabetic rats by transfection for two days with luciferase-based reporter plasmids by following the methods taught in the AMAXA® NUCLEOFECTOR® II Manual (www.amaxa.com; AMAX and NUCLEOFECTOR are registered trademarks of Amaxa GmBH Corp., Koln, Fed. Rep. Germany) and by Saleh et al. (2013, Ciliary neurotrophic factor activates NF-κB to enhance mitochondrial bioenergetics and prevent neuropathy in sensory neurons of streptozotocin-induced diabetic rodents. Neuropharmacology 65:65-75) (the luciferase-based reporter plasmids were a gift from Dr. Michael Czubryt, University of Manitoba).

[5] = system: DCA-treated Swiss Webster mice; conditions: pirenzepine 10 mg/kg/day s.c.
Experimental: Swiss Webster mice were treated with DCA (1 mg/kg/day s.c.) for 8 weeks to induce peripheral neuropathy following the method described for rats by Calcutt et al. (2009, Peripheral neuropathy in rats exposed to dichloroacetate. J. Neuropath. Exp. Neurol. 68:985-93). Some DCA-treated mice were also treated with pirenzepine (Pz: 10 mg/kg/day s.c.) for the duration of the study while others were treated with vehicle alone.

[6] = system: cultured adult rat sensory neurons; assay type: cell-based; conditions: 1 μM; gp120 24 hours; P<0.05
Experimental: To further extend our investigation of the actions of muscarinic receptor antagonists on nerve growth, cultured adult rat sensory neurons were treated for 24 hours with recombinant gp120, an external coat protein of HIV that causes toxicity to sensory neurons in HIV neuropathy (FIG. 24). This toxicity leads to axon degeneration and neuronal cell death. Cultures were treated with 1 μM pirenzpeine and total neurite outgrowth determined. […] Values are means±SEM. n=6.

[7] = system: AMP-activated protein kinase (AMPK); assay: AMPK phosphorylation (Western blot) in cultured adult sensory neurons; assay type: cell-based, rat; conditions: 1.0 μM, 15-60 min
Experimental: Subsets of cultured adult sensory neurons derived from age-matched control rats or 3-5 month STZ-induced diabetic rats were treated with a 1.0 μM pirenzepine-HCl dosage. The first subset was processed immediately while the second, third and fourth subsets of the neurons from the control rats and the diabetic rats were processed after 15 min, after 30 min, and after 60 min respectively following treatment with pirenzepine. The cell cultures were lysed and then used to prepare Western blots which were then probed with antibodies against phosphorylated AMPK (P-AMPK), total AMPK (T-AMPK) and total ERK (T-ERK). […] Values are means±SEM, N=3/group. Statistical significance was analyzed using one-way ANOVA with Tukey's post-hoc test.

[8] = system: STZ-induced diabetic rats; assay: Motor and sensory nerve conduction velocity in STZ-induced diabetic rats; assay type: in vivo, rat; conditions: 5 mg/kg s.c., 8 weeks; p<0.05 vs vehicle-treated diabetic rats
Experimental: The STZ rat is a model of type 1 diabetes. Rats were treated with 5 mg/kg (s.c.) pirenzepine for 8 weeks following the method taught by Calcutt et al. (2003, Therapeutic efficacy of sonic hedgehog protein in experimental diabetic neuropathy. J. Clin. Invest. 111:507-514). Nerve conduction velocities (NCV) were determined following the methods taught by Mizisin et al. (2004, Ciliary Neurotrophic Factor Improves Nerve Conduction and Ameliorates Regeneration Deficits in Diabetic Rats. Diabetes 53:1807-12). […] All data are group mean±SEM (N=5-6 group). Statistical analysis by one-way ANOVA with Dunnett's post-hoc test.

[9] = system: adult sensory neurons from normal rats; assay: Neurite outgrowth of sensory neurons exposed to paclitaxel or oxaliplatin; assay type: cell-based, rat; conditions: 24 hours, pirenzepine 0.1, 1.0 or 10 μM
Experimental: Adult sensory neurons from normal rats were cultured for 24 hours in the presence of(A) paclitaxel (PX; 0.1 μM or 0.3 μM), or (B) oxaliplatin (OX; 3.0 μM). From time of plating some cultures were treated with 0.1, 1.0 or 10 μM pirenzepine (PZ). Levels of total neurite outgrowth were determined and presented as means±SEM, N=6-8/group. Significant differences were assessed in(A) by t-test, and in(B) by one-way ANOVA with Dunnett's post-hoc test.

transcriptional activity of PGC-1α (PGC-1α)	Structure (SMILES)	coupling efficiency [1]	oxygen consumption rate (OCR) [1]	respiratory control ratio [1]	spare respiratory capacity ([1]; compared to controls)	selectivity to M1R relative to M2, M3, M4 and M5 receptors [2]	pirenzepine-induced neurite outgrowth under blockage of AMPK signaling [3]	tactile allodynia (paw 50% tactile response threshold) [4]	thermal hyperalgesia (paw thermal response latency) [4]	depletion of paw skin IENF ([5]; 8 weeks)	paw thermal hypoalgesia ([5]; 8 weeks)	onset of MNCV slowing ([5]; after 4 weeks of exposure)	protection from gp120-induced neurite degeneration [6]	P-AMPK level ([7]; cultures from normal (age-matched control) rats)	P-AMPK level ([7]; cultures from type 1 (STZ) diabetic rats)	motor nerve conduction velocity (MNCV) slowing [8]	sensory nerve conduction velocity (SNCV) slowing [8]	reduced neurite outgrowth caused by oxaliplatin ([9]; oxaliplatin 3.0 μM)	reduced neurite outgrowth caused by paclitaxel ([9]; paclitaxel 0.1 or 0.3 μM)
	O=C(CCNS(=O)(=O)c1cccc2nsnc12)N1CCN(c2ccncc2)CC1 [VU0255035]	not dissimilar	increased	not dissimilar	significantly increased	75 times													
enhanced	CN1CCN(CC(=O)N2c3ccccc3C(=O)Nc3cccnc32)CC1 [pirenzepine]						completely inhibited	prevented	prevented	prevented	prevented	delayed onset	complete protection	significantly activated	significantly activated	attenuated	attenuated	prevented	prevented
